Source: patent US20240199546A1, “INHIBITORS OF SOLUTE CARRIER FAMILY 6A MEMBER 19 (SLC6A19) AND METHODS OF USE THEREOF” (Maze Therapeutics, Inc., priority 2022, published 2024)

Key:
[1] = target: T1, human SLC6A19 and TMEM27 (Homo sapiens, UniProt Q695T7); test: Radiolabelled (3H) leucine uptake in CHO cells with doxycycline-inducible expression of human SLC6A19 and TMEM27 (Example B-1); assay type: cell-based; conditions: CHO cells with doxycycline-inducible expression of human SLC6A19 and TMEM27, read-out: SLC6A19_Radioligand Uptake Assay IC50
T1 construct: expressed in transfected cells
T1 sequence (Q695T7 1-634): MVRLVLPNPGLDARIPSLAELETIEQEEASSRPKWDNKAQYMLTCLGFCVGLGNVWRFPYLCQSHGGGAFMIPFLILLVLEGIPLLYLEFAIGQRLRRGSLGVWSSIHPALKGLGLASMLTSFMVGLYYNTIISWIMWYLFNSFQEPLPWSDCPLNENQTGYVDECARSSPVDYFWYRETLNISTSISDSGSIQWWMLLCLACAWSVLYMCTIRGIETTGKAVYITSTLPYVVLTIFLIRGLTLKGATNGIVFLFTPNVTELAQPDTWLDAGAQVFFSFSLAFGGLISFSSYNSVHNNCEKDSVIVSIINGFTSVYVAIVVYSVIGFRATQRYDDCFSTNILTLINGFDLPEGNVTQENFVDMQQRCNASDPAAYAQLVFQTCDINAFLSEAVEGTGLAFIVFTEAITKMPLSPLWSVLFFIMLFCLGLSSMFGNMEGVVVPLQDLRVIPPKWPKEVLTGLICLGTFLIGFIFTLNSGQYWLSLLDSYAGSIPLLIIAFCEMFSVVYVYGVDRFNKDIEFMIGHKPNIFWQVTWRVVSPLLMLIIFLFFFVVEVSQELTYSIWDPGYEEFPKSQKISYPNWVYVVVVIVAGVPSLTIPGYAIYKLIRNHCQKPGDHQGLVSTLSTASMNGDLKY
T1 sequence (Q9HBJ8 15-222 partner): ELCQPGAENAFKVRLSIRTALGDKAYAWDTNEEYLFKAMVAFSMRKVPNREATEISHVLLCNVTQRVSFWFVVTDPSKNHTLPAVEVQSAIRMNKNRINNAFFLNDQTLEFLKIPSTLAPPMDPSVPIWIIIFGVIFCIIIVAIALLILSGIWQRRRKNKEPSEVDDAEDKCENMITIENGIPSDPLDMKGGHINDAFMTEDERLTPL
Procedure, shortened: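 CHO cells were induced with doxycycline for 18 h at 37 °C, washed in HBSS, then exposed to compounds for 1 h: 8-point, 3-fold dilutions in duplicate, 0.5% DMSO final. Uptake measured by scintillation counting after 2 h shaking. Activity normalized with positive control as 0% and DMSO as 100%.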

[2] = target: T1, human SLC6A19 and TMEM27; test: 13C6,15N-isoleucine uptake in CHO cells with doxycycline-inducible expression of human SLC6A19 and TMEM27, RapidFire mass spectrometry (Example B-2); assay type: cell-based; conditions: read-out: SLC6A19_RapidFire Uptake Assay IC50
Protocol: Assay ready vials of CHO cells with doxycycline inducible expression of human SLC6A19 and TMEM27 were thawed, plated in T175 flasks containing DMEM/F12 media, 10% FBS, 1% Penicillin-Streptomycin, 1× UltraGlutamate, 1 mM Sodium Pyruvate, Sodium Bicarbonate (7.5 mL of 7.5% solution in 500 mL media final), 5 μg/mL Blasticidin, 150 μg/mL Hygromycin B Gold, and 500 μg/mL G418, and incubated (humidified, 37° C. with 5% CO2) for 48 hours. Media was then removed, flasks were washed with 20 mL of DPBS, and 5 mL of TrypLE™ Express was added to each flask to initiate cell dissociation. After 5 minutes, 10 mL of cell culture media was added to each flask and mixed. The cell suspension was collected and centrifuged for 5 minutes at 200×g. The supernatant was removed, and the pellet was resuspended in 10 mL of cell culture media. Resuspended cells were counted using a Vi-Cell. 30 μL/well (20,000 cells/well) of cell suspension was added to Poly-D-Lysine 384-well black/clear plates. Plates were incubated (humidified, 37° C. with 5% CO2) for 24 hours. To induce expression of human SLC6A19 and TMEM27, 10 μL of assay culture media containing 4 μg/mL doxycycline was added to each well. Assay plates were then incubated (humidified, 37° C. with 5% CO2) overnight. After incubation, the media was removed, and wells were washed 3 times with 40 μL of warmed DPBS. Next, 10 μL of warmed assay buffer (137 mM NaCl, 5 mM KCl, 1 mM CaCl2), 1 mM MgCl2, 10 mM HEPES, 10 mM glucose, pH 7.2) was added to each well. 10 μL/well of test compound or positive control compound to define 0% activity (i.e., 100% inhibition), was then added into each well. All compounds were plated in a duplicate 10-point dilution series that consisted of 2-fold dilutions. The plates were incubated (humidified, 37° C. with 5% C2) with compound for 20 minutes. Afterwards, 20 μL/well of 2 mM 13C6,15N-1-isoleucine was added to each well and plates were incubated again (humidified, 37° C. with 5% C02) for another 20 minutes. Assay buffer was then removed, and plates were washed. 70 μL/well of stop solution (75% acetonitrile, 25% HPLC grade water, 250 nM 1-leucine-1-13C (RapidFire standard)) was added to each well. The plates were sealed and then placed in a −20° C. freezer for 20 minutes. The plates were thawed at room temperature for 20 minutes and then centrifuge for 20 minutes at 3000 rpm. Using an ABSciex API4000 mass spectrometer, processed samples were loaded onto the graphitic carbon SPE-column. The time for aspiration, load/wash, elution and re-equilibration time was 600, 1500, 3000 and 500 milliseconds, respectively. Peak areas were calculated using RapidFire Integrator software.

Structure (SMILES) | IC50 [1] [µM] | IC50 [2] [µM]
CC1(C(=O)NCc2cc3ccc(SCc4ccon4)cc3[nH]2)CC1 [Compound 196, N-((6-((isoxazol-3-ylmethyl)thio)-1H-indol-2-yl)methyl)-1-methylcyclopropanecarboxamide] | 0.207 | 0.46
O=C(NCc1cc2cc(C(F)(F)F)c(OCc3cscn3)cc2[nH]1)N1CCCC1 [Compound 479, N-((6-(thiazol-4-ylmethoxy)-5-(trifluoromethyl)-1H-indol-2-yl)methyl)pyrrolidine-1-carboxamide] | 1.67 | 0.545
CC1(C(=O)NCc2cc3ccc(OCc4c[nH]nn4)cc3[nH]2)CC1 [Compound 194, N-((6-((1H-1,2,3-triazol-4-yl)methoxy)-1H-indol-2-yl)methyl)-1-methylcyclopropane-1-carboxamide] | 6.78 | 4.94
O=C(NCc1cc2ccc(OCc3ccon3)cc2[nH]1)N1CCCCC1 [Compound 123, N-((6-(isoxazol-3-ylmethoxy)-1H-indol-2-yl)methyl)piperidine-1-carboxamide] | 0.34 | 0.576
CC1CN(C(=O)NCc2cc3cc(Cl)c(OCc4ccon4)cc3[nH]2)C1 [Compound 390, N-((5-chloro-6-(isoxazol-3-ylmethoxy)-1H-indol-2-yl)methyl)-3-methylazetidine-1-carboxamide] | 0.34 | 0.402
O=C(NCc1cc2ccc(OCc3ccon3)cc2[nH]1)N1CCC1 [Compound 122, N-((6-(isoxazol-3-ylmethoxy)-1H-indol-2-yl)methyl)azetidine-1-carboxamide] | 0.36 | 0.783
Cc1cc(COc2cc3[nH]c(CNC(=O)C(C)C)cc3cc2Cl)no1 [Compound 130, N-((5-chloro-6-((5-methylisoxazol-3-yl)methoxy)-1H-indol-2-yl)methyl)isobutyramide] | 0.085 | 0.065
Cn1ncc(COc2cc3[nH]c(CNC(=O)N4CCCC4)cc3cc2F)n1 [Compound 410, N-((5-fluoro-6-((2-methyl-2H-1,2,3-triazol-4-yl)methoxy)-1H-indol-2-yl)methyl)pyrrolidine-1-carboxamide] | 0.386 | 0.578
CC1(C(=O)NCc2cc3cc(Cl)c(CCc4ccon4)cc3[nH]2)CC1 [Compound 150, N-((5-chloro-6-(2-(isoxazol-3-yl)ethyl)-1H-indol-2-yl)methyl)-1-methylcyclopropane-1-carboxamide] | 0.12 | 0.036
Cc1ncc(COc2ccc3cc(CNC(=O)C4(C)CC4)[nH]c3c2)s1 [Compound 178, 1-methyl-N-((6-((2-methylthiazol-5-yl)methoxy)-1H-indol-2-yl)methyl)cyclopropane-1-carboxamide] | – | 0.511
CC1(C(=O)NCc2cc3ccc(OCc4nccs4)cc3[nH]2)CC1 [Compound 43, 1-methyl-N-((6-(thiazol-2-ylmethoxy)-1H-indol-2-yl)methyl)cyclopropane-1-carboxamide] | – | 0.192
CNC(=O)NCc1cc2cc(Cl)c(OCc3ccon3)cc2[nH]1 [Compound 110, 1-((5-chloro-6-(isoxazol-3-ylmethoxy)-1H-indol-2-yl)methyl)-3-methylurea] | – | 0.464
CC1(C(=O)NCc2cc3cc(Cl)c(OCc4nccs4)cc3[nH]2)CC1 [Compound 40, N-((5-chloro-6-(thiazol-2-ylmethoxy)-1H-indol-2-yl)methyl)-1-methylcyclopropane-1-carboxamide] | – | 0.064
CC1(C(=O)NCc2[nH]c3cc(OCc4ccccc4)ccc3c2Cl)CC1 [Compound 158, N-((6-(benzyloxy)-3-chloro-1H-indol-2-yl)methyl)-1-methylcyclopropane-1-carboxamide] | – | 0.188
CC1(C(=O)NCc2cc3ccc(OCc4cnco4)cc3[nH]2)CC1 [Compound 163, 1-methyl-N-((6-(oxazol-5-ylmethoxy)-1H-indol-2-yl)methyl)cyclopropane-1-carboxamide] | – | 0.92
Cc1nnc(COc2ccc3cc(CNC(=O)C4(C)CC4)[nH]c3c2)s1 [Compound 165, 1-methyl-N-((6-((5-methyl-1,3,4-thiadiazol-2-yl)methoxy)-1H-indol-2-yl)methyl)cyclopropane-1-carboxamide] | – | 2.18
Cc1cc(COc2cc3[nH]c(CNC(=O)C4(C)CC4)cc3cc2Cl)on1 [Compound 175, N-((5-chloro-6-((3-methylisoxazol-5-yl)methoxy)-1H-indol-2-yl)methyl)-1-methylcyclopropane-1-carboxamide] | – | 0.038
Cc1cc(Cc2ccc3cc(CNC(=O)C4(C)CC4)[nH]c3c2)no1 [Compound 160, 1-methyl-N-((6-((5-methylisoxazol-3-yl)methyl)-1H-indol-2-yl)methyl)cyclopropanecarboxamide] | – | > 50
CC1(C(=O)NCc2cc3cc(F)c(OCc4cocn4)cc3[nH]2)CC1 [Compound 7, N-((5-fluoro-6-(oxazol-4-ylmethoxy)-1H-indol-2-yl)methyl)-1-methylcyclopropane-1-carboxamide] | – | 0.225
Cc1ncc(COc2cc3[nH]c(CNC(=O)C4(C)CC4)cc3cc2Cl)s1 [Compound 176, N-((5-chloro-6-((2-methylthiazol-5-yl)methoxy)-1H-indol-2-yl)methyl)-1-methylcyclopropane-1-carboxamide] | – | 0.528
CC1(C(=O)NCc2cc3ccc(OCc4ccncn4)cc3[nH]2)CC1 [Compound 53, 1-methyl-N-((6-(pyrimidin-4-ylmethoxy)-1H-indol-2-yl)methyl)cyclopropane-1-carboxamide] | – | 4.82
CC1(C(=O)NCc2cc3cc(F)c(OCc4cncs4)cc3[nH]2)CC1 [Compound 9, N-((5-fluoro-6-(thiazol-5-ylmethoxy)-1H-indol-2-yl)methyl)-1-methylcyclopropane-1-carboxamide] | – | 0.271
CC1(C(=O)NCc2cc3cc(Cl)c(OCc4cccnc4)cc3[nH]2)CC1 [Compound 39, N-((5-chloro-6-(pyridin-3-ylmethoxy)-1H-indol-2-yl)methyl)-1-methylcyclopropane-1-carboxamide] | – | 0.37
CNC(=O)NCc1cc2ccc(OCc3cscn3)cc2[nH]1 [Compound 217, 1-methyl-3-((6-(thiazol-4-ylmethoxy)-1H-indol-2-yl)methyl)urea] | – | 3.42
CNC(=O)NCc1cc2ccc(OCc3cocn3)cc2[nH]1 [Compound 108, 1-methyl-3-((6-(oxazol-4-ylmethoxy)-1H-indol-2-yl)methyl)urea] | – | 5.57
CC1(C(=O)NCc2cc3ccc(OCc4ncccn4)cc3[nH]2)CC1 [Compound 51, 1-methyl-N-((6-(pyrimidin-2-ylmethoxy)-1H-indol-2-yl)methyl)cyclopropane-1-carboxamide] | – | 4.39
